Residues, ends and D or L forms follow the SMILES beside them.
Experiments:
[1] = tested on: rats with alloxan diabetes; assay: Course of alloxan diabetes in rats, treatment variant (Example 2); type: in vivo, rat; details: for decrease of the blood glucose level: throughout the whole study
Method: The study was conducted on 21 white mongrel male rats with average body weight 375±35 g. After estimation of glucose concentration in the blood all the animals were divided at random into 2 groups. Then all the animals were exposed to single intravenous administration 1 ml of alloxan solution (“Spofa”) in dose 35 mg/kg. In 15 days control animals were administered once a day intraperitoneally with 0.3 ml 0.9% NaCl solution, rats of the main group were administered with Lys-Glu-Asp-Trp-NH2 [SEQ ID NO:1] in dose 3 μg (in 0.3 ml of 0.9% NaCl solution) per rat during 11 days.

[2] = tested on: rats with alloxan diabetes; assay: Insulin level in blood of alloxan diabetes rats (Example 5); type: in vivo, rat
Method: The experiment was held on 18 white mongrel rats weighing an average 375±35 g. After the estimation of the blood glucose level all the animals were divided at random into 2 groups. Then all the animals were subjected to single intravenous injection with 1 ml of alloxan solution (“Spofa”) in dose of 35 mg/kg. 15 days later control animals were daily intraperitoneally administered with 0.3 ml of 0.9% NaCl solution, rats of the main group—with tetrapeptide Lys-Glu-Asp-Trp-NH2 [SEQ ID NO:1] in dose of 3 μg (in 0.3 ml of 0.9% NaCl) per rat during 11 days.

[3] = 8 days since the onset of tetrapeptide administration, 3 μg per rat i.p. daily
[4] = 15 days after alloxan administration, before peptide

NCCCC[C@H](N)C(=O)N[C@@H](CCC(=O)O)C(=O)N[C@@H](CC(=O)O)C(=O)N[C@@H](Cc1c[nH]c2ccccc12)C(N)=O [Lys-Glu-Asp-Trp-NH2, lysyl-glutamyl-aspartyl-tryptophane amid] (H-KEDW-NH2)
Glucose Concentration in the blood ([1]; 1 day upon completion of peptide administration (3 μg per rat, 11 days)): 222.5 ± 10.3 mg % | Glucose Concentration in the blood [1, 3]: 254.5 ± 16.2 mg % | Glucose Concentration in the blood ([1]; 9 days upon completion of peptide administration): 183.9 ± 10.5 mg % | Glucose Concentration in the blood [1, 4]: 333.6 ± 12.4 mg % | Glucose Concentration in the blood ([1]; 18 days upon completion of peptide administration): 236.7 ± 10.3 mg % | Glucose Concentration in the blood ([1]; 28 days upon completion of peptide administration): 221.5 ± 11.2 mg % | Glucose Concentration in the blood ([1]; 44 days upon completion of peptide administration): 210.8 ± 9.3 mg % | Glucose Concentration in the blood ([1]; 58 days upon completion of peptide administration): 198.9 mg % | lethality ([1]; by the end of the investigation, 84 days after alloxan (control 70%)): 36.4% | Glucose Concentration in the blood ([1]; initial level, before alloxan and before peptide): 81.1 ± 3.8 mg % | decrease of the blood glucose level ([1]; overall figure): 38.4% | decrease of the blood glucose level ([1]; range in brackets): 30-47.7% | lethality decrease ([1]; versus control group): two-fold | animals alive ([2]; 70th day after alloxan administration (control 62.5%)): 70% | Insulin content in blood ([2]; 1 day after the completion of tetrapeptide administration): 3.6 ± 0.7 mkIU/ml | insulin content in the blood, higher than in the control group ([2]; 8 days of substance administration): 3.9 fold | Insulin content in blood [2, 3]: 3.1 ± 1.1 mkIU/ml | Insulin content in blood ([2]; 9 days after the completion of tetrapeptide administration): 3.2 ± 0.5 mkIU/ml | Insulin content in blood [2, 4]: 1.5 ± 0.4 mkIU/ml | Insulin content in blood ([2]; 18 days after the completion of tetrapeptide administration): 4.3 ± 0.5 mkIU/ml | Insulin content in blood ([2]; 28 days after the completion of tetrapeptide administration): 4.1 ± 0.6 mkIU/ml | Insulin content in blood ([2]; 44 days after the completion of tetrapeptide administration): 3.9 ± 1.1 mkIU/ml | amount of insulin in the blood ([2]; all the following estimations, no insulin in control animals): 13-18% | Insulin content in blood ([2]; initial level): 23.8 ± 2.8 mkIU/ml

From US7491703B2, “Tetrapeptide regulating blood glucose level in diabetes mellitus” (“Access Bioscience” CJSC, priority 2003, dated 2009)
